The source made the active and inactive calls.
Columns and labels:
[1] = blockade of melanocortin 4 receptor signaling – cell-based, plate reader, cherry pick, counter-screen for LGR2 antagonist project, dose response (AID 743444); type: functional;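 note: transfected HEK 293 cells stimulated with alpha-MSH peptide; potency of inhibitors of the alpha-MSH evoked signal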
[2] = A549 cell cytotoxicity, dose response, cytotoxicity control, plate reader, cherry-pick, antagonist series (AID 743412); type: functional, cell-based
[3] = toxicity toward HepG2 liver cells – cell-based, plate reader, cherry-pick, antagonist series, cytotoxicity control, dose response (AID 743416); type: functional
[4] = biological target: Ras and Rab interactor 1/Tyrosine-protein kinase ABL1 (Homo sapiens, UniProt P00519+Q13671); type: functional;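 note: biochemical TR-FRET dose-response test measuring inhibition of binding between Rin1 and Abl proteins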
Ras and Rab interactor 1/Tyrosine-protein kinase ABL1, sequence (P00519 whole entry): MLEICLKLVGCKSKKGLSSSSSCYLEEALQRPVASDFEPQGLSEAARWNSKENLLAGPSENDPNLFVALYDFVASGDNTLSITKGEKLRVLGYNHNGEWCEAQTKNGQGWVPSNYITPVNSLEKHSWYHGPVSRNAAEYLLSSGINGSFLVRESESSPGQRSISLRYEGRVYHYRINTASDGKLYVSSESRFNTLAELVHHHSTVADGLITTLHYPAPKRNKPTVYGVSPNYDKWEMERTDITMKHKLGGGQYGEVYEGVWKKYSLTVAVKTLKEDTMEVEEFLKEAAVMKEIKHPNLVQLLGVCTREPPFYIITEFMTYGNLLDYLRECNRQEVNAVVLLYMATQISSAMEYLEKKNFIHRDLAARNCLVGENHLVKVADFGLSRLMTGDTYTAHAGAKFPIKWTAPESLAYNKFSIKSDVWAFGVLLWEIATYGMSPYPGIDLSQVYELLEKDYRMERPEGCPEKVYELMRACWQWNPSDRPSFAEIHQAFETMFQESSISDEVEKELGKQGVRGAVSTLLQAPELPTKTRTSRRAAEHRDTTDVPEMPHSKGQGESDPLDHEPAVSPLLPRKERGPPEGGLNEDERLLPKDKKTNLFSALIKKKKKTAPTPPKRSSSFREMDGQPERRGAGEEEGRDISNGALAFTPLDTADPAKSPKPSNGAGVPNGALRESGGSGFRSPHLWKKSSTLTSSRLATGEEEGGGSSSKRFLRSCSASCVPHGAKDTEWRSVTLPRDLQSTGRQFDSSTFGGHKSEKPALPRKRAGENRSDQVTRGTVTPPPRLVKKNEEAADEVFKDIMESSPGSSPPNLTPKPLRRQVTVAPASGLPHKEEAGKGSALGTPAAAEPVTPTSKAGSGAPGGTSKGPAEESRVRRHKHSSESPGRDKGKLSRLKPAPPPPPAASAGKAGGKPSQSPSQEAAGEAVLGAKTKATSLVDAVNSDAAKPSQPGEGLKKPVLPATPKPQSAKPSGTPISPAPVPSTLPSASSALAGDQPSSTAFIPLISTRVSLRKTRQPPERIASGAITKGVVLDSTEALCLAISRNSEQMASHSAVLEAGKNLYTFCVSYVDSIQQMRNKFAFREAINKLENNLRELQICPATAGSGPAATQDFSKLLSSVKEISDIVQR
Ras and Rab interactor 1/Tyrosine-protein kinase ABL1, sequence (Q13671 whole entry): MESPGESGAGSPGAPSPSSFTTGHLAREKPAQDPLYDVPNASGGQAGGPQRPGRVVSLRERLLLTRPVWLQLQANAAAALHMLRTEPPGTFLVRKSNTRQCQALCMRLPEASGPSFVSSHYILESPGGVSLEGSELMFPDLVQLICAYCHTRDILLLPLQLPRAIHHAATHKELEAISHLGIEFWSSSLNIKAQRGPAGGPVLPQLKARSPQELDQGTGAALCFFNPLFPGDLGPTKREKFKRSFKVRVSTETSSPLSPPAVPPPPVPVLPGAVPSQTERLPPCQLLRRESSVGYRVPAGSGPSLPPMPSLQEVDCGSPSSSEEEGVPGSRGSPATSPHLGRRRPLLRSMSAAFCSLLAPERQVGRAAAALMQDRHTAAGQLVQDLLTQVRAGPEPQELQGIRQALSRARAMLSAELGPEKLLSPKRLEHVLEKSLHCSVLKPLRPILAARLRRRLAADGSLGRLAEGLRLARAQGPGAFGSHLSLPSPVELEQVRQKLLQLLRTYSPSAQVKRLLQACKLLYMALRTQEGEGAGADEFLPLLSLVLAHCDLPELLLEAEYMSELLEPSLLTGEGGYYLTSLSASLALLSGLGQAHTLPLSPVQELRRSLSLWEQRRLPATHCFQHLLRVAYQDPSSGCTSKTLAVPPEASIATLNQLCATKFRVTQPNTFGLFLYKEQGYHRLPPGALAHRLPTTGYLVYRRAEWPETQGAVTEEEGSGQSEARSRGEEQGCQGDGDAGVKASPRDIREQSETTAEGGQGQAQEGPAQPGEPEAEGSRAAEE

[5] = viability loss in HEK293 cells – cell-based, plate reader, cherry-picked samples, cytotoxicity control, dose response (AID 743446); type: functional
[6] = blockers of bursicon-stimulated LGR2 cAMP reporter – cell-based, HEK293, CRE-luciferase reporter, cherry pick, set 2, dose response (AID 743343); type: functional;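 note: transfected cells were stimulated with diluted bursicon conditioned medium after compound addition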
[7] = biological target: Tyrosyl-DNA phosphodiesterase 2 (Homo sapiens, UniProt O95551); assay: potency against TDP2 phosphodiesterase activity – biochemical, epi absorbance, IC50, dose response (AID 743297)
Tyrosyl-DNA phosphodiesterase 2, sequence (O95551 whole entry): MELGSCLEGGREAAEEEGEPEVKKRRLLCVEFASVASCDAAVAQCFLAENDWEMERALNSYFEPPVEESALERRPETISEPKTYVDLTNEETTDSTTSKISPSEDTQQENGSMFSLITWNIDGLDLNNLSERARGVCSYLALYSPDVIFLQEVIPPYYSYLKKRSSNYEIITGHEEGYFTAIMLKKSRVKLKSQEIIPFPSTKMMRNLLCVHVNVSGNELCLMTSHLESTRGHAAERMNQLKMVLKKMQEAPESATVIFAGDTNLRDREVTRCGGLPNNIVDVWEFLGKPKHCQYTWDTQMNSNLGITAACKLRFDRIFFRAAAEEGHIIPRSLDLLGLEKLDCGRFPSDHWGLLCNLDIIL

[8] = biological target: T1, Sentrin-specific protease 8 (Homo sapiens, UniProt Q96LD8); type: functional
T1 sequence (Q96LD8 whole entry): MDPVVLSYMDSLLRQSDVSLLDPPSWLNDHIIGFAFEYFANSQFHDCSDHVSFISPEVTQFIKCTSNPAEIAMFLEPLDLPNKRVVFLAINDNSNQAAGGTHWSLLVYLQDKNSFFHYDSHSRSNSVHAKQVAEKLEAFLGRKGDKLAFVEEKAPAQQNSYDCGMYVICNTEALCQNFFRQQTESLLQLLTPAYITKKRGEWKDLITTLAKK

[9] = biological target: T2, Replicative DNA helicase DnaB (Mycobacterium tuberculosis, UniProt P9WMR3); assay: DnaB intein splicing inhibitors, dose response, biochemical, cell-free fluorescence (AID 449749); type: functional
T2 sequence (P9WMR3 whole entry): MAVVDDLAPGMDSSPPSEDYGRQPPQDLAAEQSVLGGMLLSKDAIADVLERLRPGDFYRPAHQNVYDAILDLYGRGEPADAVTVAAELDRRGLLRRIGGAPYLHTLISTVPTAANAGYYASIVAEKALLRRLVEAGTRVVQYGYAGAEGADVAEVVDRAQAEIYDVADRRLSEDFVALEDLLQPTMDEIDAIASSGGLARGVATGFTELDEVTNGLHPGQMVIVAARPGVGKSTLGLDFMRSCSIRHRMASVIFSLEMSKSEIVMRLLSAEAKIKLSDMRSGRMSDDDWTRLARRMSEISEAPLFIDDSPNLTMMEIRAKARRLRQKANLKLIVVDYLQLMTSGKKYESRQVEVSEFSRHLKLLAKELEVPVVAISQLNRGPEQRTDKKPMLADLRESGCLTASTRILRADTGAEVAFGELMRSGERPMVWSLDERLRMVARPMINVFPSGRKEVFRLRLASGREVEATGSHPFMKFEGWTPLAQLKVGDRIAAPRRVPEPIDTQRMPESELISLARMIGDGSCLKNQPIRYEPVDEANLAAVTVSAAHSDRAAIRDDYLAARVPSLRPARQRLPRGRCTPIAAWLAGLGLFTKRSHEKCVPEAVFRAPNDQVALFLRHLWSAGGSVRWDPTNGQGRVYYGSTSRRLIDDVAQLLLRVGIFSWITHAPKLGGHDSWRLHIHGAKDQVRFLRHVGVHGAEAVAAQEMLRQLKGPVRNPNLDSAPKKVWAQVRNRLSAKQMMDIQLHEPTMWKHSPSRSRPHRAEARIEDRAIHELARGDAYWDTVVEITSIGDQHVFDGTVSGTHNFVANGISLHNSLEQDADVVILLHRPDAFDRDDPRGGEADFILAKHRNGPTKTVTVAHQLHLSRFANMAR

[10] = biological target: T1, Sentrin-specific protease 8; type: functional; remark: listed apart in the source
[11] = biological target: T3, Protein RecA (Mycobacterium tuberculosis, UniProt P9WHJ3); assay: Fluorescence Cell-Free Homogeneous Dose Retest to Identify Inhibitors of RecA-Intein Splicing Activity. [Related pubchem assays (depositor defined):AID2097, AID2223, AID489010, AID492950]; type: functional
T3 sequence (P9WHJ3 whole entry): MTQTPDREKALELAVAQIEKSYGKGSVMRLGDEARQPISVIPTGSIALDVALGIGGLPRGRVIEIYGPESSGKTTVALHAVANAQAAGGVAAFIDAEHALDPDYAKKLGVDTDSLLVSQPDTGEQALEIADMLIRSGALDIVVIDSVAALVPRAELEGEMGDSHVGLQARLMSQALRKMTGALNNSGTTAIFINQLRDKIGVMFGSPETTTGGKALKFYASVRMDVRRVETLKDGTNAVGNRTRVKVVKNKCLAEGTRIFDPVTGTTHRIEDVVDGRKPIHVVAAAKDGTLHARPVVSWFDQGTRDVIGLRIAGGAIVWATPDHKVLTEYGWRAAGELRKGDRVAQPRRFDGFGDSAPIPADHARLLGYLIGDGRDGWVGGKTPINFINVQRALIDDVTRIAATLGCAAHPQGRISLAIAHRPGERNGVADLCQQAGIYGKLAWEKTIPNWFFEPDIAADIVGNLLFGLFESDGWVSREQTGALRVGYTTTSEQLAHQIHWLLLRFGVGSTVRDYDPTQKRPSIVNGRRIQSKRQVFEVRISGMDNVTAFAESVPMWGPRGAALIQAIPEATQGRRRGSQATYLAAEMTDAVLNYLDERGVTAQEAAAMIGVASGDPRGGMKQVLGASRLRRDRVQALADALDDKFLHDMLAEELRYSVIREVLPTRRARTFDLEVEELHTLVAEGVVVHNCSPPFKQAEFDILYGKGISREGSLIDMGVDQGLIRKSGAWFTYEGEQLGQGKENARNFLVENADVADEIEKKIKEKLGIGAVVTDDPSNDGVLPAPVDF

[12] = biological target: Endoplasmic reticulum aminopeptidase 1 (Homo sapiens, UniProt Q9NZ08); assay: inhibition of human ERAP1 enzyme activity – biochemical, cherry-pick, set 2, plate reader, dose response (AID 743314)
Endoplasmic reticulum aminopeptidase 1, sequence (Q9NZ08 whole entry): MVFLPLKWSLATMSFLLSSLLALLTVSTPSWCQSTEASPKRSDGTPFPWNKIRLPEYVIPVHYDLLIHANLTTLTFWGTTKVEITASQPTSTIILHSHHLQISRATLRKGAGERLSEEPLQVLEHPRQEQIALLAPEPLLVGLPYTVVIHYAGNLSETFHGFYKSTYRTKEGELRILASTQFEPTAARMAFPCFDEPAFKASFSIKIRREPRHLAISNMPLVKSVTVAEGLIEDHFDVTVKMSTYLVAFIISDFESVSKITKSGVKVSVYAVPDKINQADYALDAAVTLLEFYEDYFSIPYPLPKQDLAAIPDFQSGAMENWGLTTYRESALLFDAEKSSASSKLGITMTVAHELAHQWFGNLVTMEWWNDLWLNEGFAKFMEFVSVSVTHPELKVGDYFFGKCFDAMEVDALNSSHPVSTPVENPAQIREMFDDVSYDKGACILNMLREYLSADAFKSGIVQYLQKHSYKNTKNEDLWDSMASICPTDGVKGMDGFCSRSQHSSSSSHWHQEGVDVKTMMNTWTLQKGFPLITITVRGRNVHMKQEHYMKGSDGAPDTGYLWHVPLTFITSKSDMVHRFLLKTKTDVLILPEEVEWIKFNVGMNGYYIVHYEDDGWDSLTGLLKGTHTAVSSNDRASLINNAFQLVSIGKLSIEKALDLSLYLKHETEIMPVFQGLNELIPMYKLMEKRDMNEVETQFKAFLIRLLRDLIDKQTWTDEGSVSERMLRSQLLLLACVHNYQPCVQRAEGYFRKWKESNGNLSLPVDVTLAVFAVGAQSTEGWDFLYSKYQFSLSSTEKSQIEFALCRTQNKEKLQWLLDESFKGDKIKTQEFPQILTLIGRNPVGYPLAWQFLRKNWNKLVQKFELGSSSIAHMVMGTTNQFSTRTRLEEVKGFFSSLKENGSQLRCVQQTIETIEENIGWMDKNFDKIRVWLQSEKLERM

[13] = biological target: T4, DNA repair and recombination protein RAD54-like (Homo sapiens, UniProt Q92698); assay: RAD54 Holliday junction migration blockers – biochemical, fluorescence, cherry-picked samples, dose series, confirmation (AID 651657); type: functional
T4 sequence (Q92698 whole entry): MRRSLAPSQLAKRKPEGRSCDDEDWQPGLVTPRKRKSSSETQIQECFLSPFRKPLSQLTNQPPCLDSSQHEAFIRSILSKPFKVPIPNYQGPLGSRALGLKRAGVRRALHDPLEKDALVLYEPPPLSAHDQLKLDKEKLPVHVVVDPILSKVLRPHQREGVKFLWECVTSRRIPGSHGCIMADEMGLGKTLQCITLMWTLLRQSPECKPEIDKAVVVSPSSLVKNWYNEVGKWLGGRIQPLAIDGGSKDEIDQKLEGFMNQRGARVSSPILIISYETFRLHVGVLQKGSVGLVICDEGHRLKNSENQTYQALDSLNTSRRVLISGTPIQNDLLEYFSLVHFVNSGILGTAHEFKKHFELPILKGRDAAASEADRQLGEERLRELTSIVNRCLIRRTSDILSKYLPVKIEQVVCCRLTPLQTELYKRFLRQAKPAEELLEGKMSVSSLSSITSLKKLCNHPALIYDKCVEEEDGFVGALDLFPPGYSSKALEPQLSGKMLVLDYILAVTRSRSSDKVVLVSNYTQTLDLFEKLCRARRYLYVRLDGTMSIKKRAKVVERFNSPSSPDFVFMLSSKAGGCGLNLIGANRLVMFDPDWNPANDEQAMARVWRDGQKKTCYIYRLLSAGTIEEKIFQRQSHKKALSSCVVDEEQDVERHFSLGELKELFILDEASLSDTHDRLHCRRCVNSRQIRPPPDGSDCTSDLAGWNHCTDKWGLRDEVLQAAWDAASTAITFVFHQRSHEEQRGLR

[14] = biological target: Major prion protein (Homo sapiens, UniProt P04156); type: functional, cell-based
[15] = cells
[16] = viability loss in HepG2 hepatoma cells – cell-based, ATP luminescence, cherry-pick, activator set 2, cytotoxicity control, dose response (AID 1053143); type: functional

CCOC(=O)c1ccc(NC(=O)COc2ccccc2CNCCc2ccccc2)cc1
AC50 [1]: 27.7 µM (active) | AC50 [2]: 10 µM (active) | AC50 [3]: 13.9 µM (active) | IC50 [4]: 25.9 µM (inactive) | AC50 [5]: 15.4 µM (active) | AC50 [6]: 17.4 µM (active)

COC(=O)c1ccccc1-c1ccc(C(c2c(C)n[nH]c2O)c2c(C)n[nH]c2O)o1
IC50 [7]: 51.2 µM (inactive) | IC50 [8]: 18.6 µM (active) | AC50 [9]: 0.279 µM (active) | IC50 [10]: 8.91 µM (active) | EC50 [11]: 0.214 µM (active)

CN1CCCC1CCNc1ccc2c(=O)c3ccccc3oc2c1 (stereo unspecified)
AC50 [12]: 4.52 µM (active) | AC50 [13]: 21.1 µM (active)

CCOC(=O)C(CC)Sc1cc(C)nc2ccc(OC)cc12 (stereo unspecified)
IC50 [14]: 5.29 µM (active) | IC50 [15]: > 138 µM (inactive)

Cc1occc1-c1nnc(SC(C)C(=O)Nc2ccccc2F)o1 (stereo unspecified)
AC50 [16]: 19.3 µM (active)

Reference: ChEMBL document CHEMBL1201862, “PubChem BioAssay data set” (2004)
